# Data published in patent US8835472B2, “Compounds, pharmaceutical compositions and uses thereof” (Boehringer Ingelheim International GmbH, priority 2010, dated 2014).
# pIC50: −log10 of the molar value.
# Biological target: human ACC2 (Homo sapiens (Human), UniProt O00763)
# Experiment: ACC2 assay, spectrophotometric 384 well assay (NADH-linked, coupled lactate dehydrogenase/pyruvate kinase reaction)
# Format: biochemical
# Details: hACC2 construct lacking the 128 N-terminal amino acids; 25° C., 340 nm over 15 minutes
# Procedure, shortened: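 N-terminally truncated human ACC2 (lacking 128 residues) expressed in insect cells; coupled PK/LDH read-out of ADP as NADH loss at 340 nm, 15 min, 25 °C. Tris pH 7.5 with citrate and KHCO3; 200 μM acetyl-CoA, 500 μM ATP, 1% DMSO.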
# Chain of human ACC2 (O00763 129-2458): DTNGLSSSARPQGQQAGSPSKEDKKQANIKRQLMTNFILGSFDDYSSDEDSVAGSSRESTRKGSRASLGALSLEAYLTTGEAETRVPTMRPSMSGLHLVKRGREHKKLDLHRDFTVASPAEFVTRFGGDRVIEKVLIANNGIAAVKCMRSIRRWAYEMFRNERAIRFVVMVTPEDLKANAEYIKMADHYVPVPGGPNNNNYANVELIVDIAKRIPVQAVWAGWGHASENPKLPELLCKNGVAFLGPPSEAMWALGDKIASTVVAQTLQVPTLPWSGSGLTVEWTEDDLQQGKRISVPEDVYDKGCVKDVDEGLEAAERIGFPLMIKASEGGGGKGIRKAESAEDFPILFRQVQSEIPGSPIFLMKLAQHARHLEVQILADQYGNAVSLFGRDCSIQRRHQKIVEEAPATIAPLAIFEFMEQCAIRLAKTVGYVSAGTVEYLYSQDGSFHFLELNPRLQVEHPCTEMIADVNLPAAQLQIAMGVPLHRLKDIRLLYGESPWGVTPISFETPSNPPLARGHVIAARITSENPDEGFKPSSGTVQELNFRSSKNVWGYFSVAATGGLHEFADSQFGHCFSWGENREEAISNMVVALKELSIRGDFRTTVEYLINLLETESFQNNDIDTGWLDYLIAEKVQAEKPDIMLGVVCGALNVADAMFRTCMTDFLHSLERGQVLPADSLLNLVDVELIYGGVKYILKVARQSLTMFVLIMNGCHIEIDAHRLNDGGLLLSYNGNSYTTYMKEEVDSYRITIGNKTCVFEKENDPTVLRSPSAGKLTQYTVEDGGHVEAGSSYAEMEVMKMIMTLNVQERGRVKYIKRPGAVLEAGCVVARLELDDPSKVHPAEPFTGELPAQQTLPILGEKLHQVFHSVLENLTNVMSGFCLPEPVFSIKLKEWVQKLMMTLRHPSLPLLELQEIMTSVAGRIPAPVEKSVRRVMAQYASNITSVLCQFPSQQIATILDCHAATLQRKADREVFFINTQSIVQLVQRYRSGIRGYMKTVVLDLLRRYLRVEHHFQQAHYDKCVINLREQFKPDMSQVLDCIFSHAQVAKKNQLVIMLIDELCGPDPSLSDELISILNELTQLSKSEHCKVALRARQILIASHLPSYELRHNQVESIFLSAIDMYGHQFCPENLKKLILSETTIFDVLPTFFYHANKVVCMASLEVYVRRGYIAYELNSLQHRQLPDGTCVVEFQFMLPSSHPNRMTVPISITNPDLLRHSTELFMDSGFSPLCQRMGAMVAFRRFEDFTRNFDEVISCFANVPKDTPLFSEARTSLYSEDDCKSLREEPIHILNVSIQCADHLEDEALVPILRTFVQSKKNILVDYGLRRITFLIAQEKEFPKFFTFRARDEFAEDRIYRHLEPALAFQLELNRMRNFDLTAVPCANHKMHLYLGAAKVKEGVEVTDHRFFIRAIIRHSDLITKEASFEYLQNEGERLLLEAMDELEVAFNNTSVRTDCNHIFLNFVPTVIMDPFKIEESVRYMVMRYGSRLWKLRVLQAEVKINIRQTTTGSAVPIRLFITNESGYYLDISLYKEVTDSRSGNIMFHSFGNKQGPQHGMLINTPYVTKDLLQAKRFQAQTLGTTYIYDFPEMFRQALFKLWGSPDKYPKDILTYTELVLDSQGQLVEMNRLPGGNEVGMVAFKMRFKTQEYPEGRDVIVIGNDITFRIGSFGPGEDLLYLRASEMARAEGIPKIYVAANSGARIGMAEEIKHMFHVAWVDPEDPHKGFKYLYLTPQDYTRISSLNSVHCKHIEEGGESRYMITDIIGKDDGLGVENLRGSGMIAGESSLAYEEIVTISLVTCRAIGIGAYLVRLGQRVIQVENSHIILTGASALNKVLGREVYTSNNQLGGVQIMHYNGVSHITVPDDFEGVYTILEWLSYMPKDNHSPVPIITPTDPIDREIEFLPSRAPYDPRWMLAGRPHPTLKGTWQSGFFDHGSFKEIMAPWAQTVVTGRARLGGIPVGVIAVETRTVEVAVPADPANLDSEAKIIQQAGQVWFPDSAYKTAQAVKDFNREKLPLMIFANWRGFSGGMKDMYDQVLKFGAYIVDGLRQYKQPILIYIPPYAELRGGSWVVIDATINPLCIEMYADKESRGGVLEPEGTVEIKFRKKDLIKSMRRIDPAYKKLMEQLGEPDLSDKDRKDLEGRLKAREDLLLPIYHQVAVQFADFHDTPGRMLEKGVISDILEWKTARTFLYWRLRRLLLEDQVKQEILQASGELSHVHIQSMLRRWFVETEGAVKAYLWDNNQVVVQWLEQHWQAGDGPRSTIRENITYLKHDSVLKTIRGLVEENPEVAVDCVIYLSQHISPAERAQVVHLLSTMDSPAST
row,pIC50,SMILES
1,6.49,CC(Cc1ccc(C#Cc2cnc(NC3CCC3)nc2)cc1)NC(=O)C1CC1 (centres unmarked) [Example 13.44]
2,6.21,COC(=O)NC(C)Cc1ccc(C#Cc2cnc(N3CCC4(CC4)C3)nc2)cc1 (centres unmarked) [Example 13.29]
3,5.04,CC(=O)NC(C)Cc1ccc(C#Cc2cccc(OCCN3CCCCC3)c2)cc1 (centres unmarked) [Example 9.9]
4,6.55,CC(=O)NC(C)Cc1ccc(C#Cc2cnc(N3CCC4(CCCC4)C3)nc2)cc1 (centres unmarked) [Example 13.73]
5,6.47,CC(=O)NC(C)Cc1ccc(C#Cc2ccc(OCC3(C)COC3)cc2)cc1 (centres unmarked) [Example 9.33]
6,5.11,CC(=O)NC(C)Cc1ccc(C#Cc2cccc(C(=O)NCC(F)(F)F)c2)cc1 (centres unmarked) [Example 8.18]
7,5.02,CCOc1ccc(C#Cc2ccc(C(C)NC(=O)NCC(=O)O)cc2)cc1 (centres unmarked) [Example 6.4]
8,4.91,CC(=O)NC(C)Cc1ccc(C#Cc2ccc(OC3CNC3)cc2)cc1 (centres unmarked) [Example 9.10]
9,5.92,"COCCN(C)c1nccc(C#Cc2ccc(CC(C)NC(C)=O)cc2)n1 (centres unmarked) [Example 11.1, N-(1-(4-((2-((2-Methoxyethyl)(methyl)amino)pyrimidin-4-yl)ethynyl)phenyl)propan-2-yl)acetamide]"
10,6.70,CCCOc1ccc(C#Cc2ccc(C(C)CNC(=O)C3CC3)cc2)cc1 (centres unmarked) [Example 32.2]
11,4.67,CC(=O)NC(C)(C)c1ccc(C#Cc2ccc(OC(C)C)nc2)cc1 [Example 2.39]
12,5.92,CC(=O)NC(C)Cc1ccc(C#Cc2cccc(C(=O)NC3CCC3)c2)cc1 (centres unmarked) [Example 8.34]
13,6.30,CC(=O)NC(C)c1ccc(C#Cc2cccc(OCc3ccccc3)c2)cc1 (centres unmarked) [Example 2.103]
14,5.17,CC(=O)NC(C)Cc1ccc(C#Cc2cccc(C(=O)N(C)c3ccccc3)c2)cc1 (centres unmarked) [Example 8.40]
15,5.72,COCC(C)Nc1ncc(C#Cc2ccc(CC(C)NC(C)=O)cc2)cn1 (centres unmarked) [Example 13.14]
16,5.66,CC(=O)NC(C)Cc1ccc(C#Cc2ccc(C(=O)N3CCC3)cc2)cc1 (centres unmarked) [Example 8.15]
17,6.16,COC(=O)NC(C)Cc1ccc(C#Cc2cnc(NC(C)C)nc2)cc1 (centres unmarked) [Example 13.38]
18,6.68,CCC(C)Oc1ccc(C#Cc2ccc(CC(C)NC(=O)C3CC3)cc2)cc1 (centres unmarked) [Example 14.46]

row,pIC50,SMILES
1,5.80,CC(=O)N[C@@H](C)c1ccc(C#Cc2cnc(OCC3CC3)nc2)cc1 [Example 12.59]
2,5.85,CCOc1ccc(C#Cc2ccc(CC(C)NC(=O)CCOC)cc2)cc1 (centres unmarked) [Example 4.11]
3,6.39,COC(=O)NC(C)Cc1ccc(C#Cc2cnc(N3CCCCC3)nc2)cc1 (centres unmarked) [Example 13.32]
4,5.64,CC(=O)NC(C)Cc1ccc(C#Cc2cnc(OC(C)c3ccncc3)nc2)cc1 (centres unmarked) [Example 12.35]
5,6.49,COc1ccc(C#Cc2ccc(CC(C)NC(C)=O)cc2)c(C)c1 (centres unmarked) [Example 1.26]
6,6.25,CC(=O)NC(C)Cc1ccc(C#Cc2ccc(Br)cc2)cc1 (centres unmarked) [Example 2.15]
7,5.42,CC(=O)NC(C)Cc1ccc(C#Cc2cnc(NCc3cnn(C)c3)nc2)cc1 (centres unmarked) [Example 13.61]
8,6.74,CCCOc1ccc(C#Cc2ccc(CC(C)NC(C)=O)cc2)nc1 (centres unmarked) [Example 23.8]
9,6.92,CC(=O)NC(C)Cc1ccc(C#Cc2ccc(OC3CC3)cc2)cc1 (centres unmarked) [Example 2.100]
10,6.00,CCN(C)c1ncc(C#Cc2ccc(CC(C)NC(C)=O)cc2)cn1 (centres unmarked) [Example 13.3]
11,5.80,CC(=O)NC(C)Cc1ccc(C#Cc2cccc(C(=O)N3CCC(C)(C)CC3)c2)cc1 (centres unmarked) [Example 8.37]
12,6.37,CCOc1ccc(C#Cc2ccc(CCNC(C)=O)cc2)cc1 [Example 16.3]
13,6.59,CC(=O)NC(C)Cc1ccc(C#Cc2cnc(NCC(C)C)nc2)cc1 (centres unmarked) [Example 13.20]
14,7.15,CC(=O)NC(C)c1ccc(C#Cc2ccc(OC3CC3)cc2)cc1 (centres unmarked) [Example 2.55]
15,6.92,CC(=O)NC(C)c1ccc(C#Cc2ccc(OC3CCC3)cc2)cc1 (centres unmarked) [Example 2.53]
16,6.32,CC(Cc1ccc(C#Cc2ccc(OC(C)C)nc2)cc1)NC(=O)C1CC1 (centres unmarked) [Example 2.65]
17,5.96,CCCOc1cc(C#Cc2ccc(CCNC(C)=O)cc2)ccn1 [Example 14.39]
